This passage reports MIC results from US9321774B2, “Pyrrolobenzodiazepines” (MEDIMMUNE LIMITED, priority 2012, dated 2016).

Values after ≈ are worked out from the molar mass of the structure shown. Read-outs that look alike come from different tables or passages of the source. Where only a bound is given, the exact number is not on record here.

Holding throughout (assay): CLSI broth microplate assay, MIC
Holding throughout (format): cell-based

For one test, the system named is E. faecium VRE10. The settings on record: Enterococcus faecium.
Another test deals with MRSA strain BB568. The settings on record: Staphylococcus aureus, read-out: Minimum inhibitory concentration (MIC mg/L) BB568.
A further test relates to MRSA strain EMRSA-16. The note with it: Staphylococcus aureus, read-out: Minimum inhibitory concentration (MIC mg/L) EMRSA-16.
The test system of another test is E. faecalis VRE1. The settings on record: Enterococcus faecalis.
Test [1] deals with community-associated MRSA isolate USA300. The settings on record: Staphylococcus aureus, read-out: Minimum inhibitory concentration (MIC mg/L) USA300.
For a further test, the system named is MRSA strain EMRSA-15. The settings on record: Staphylococcus aureus, read-out: Minimum inhibitory concentration (MIC mg/L) EMRSA-15.
In test [2] the test system is S. aureus VISA strain Mu50. The settings on record: Staphylococcus aureus, read-out: Minimum inhibitory concentration (MIC mg/L) Mu50.
Setting [3] is: VRE10, read-out: Minimum inhibitory concentration (MIC mg/L) VRE10.
Setting [4] is: VRE1, read-out: Minimum inhibitory concentration (MIC mg/L) VRE1.
[5] abbreviates: VRE10, Mueller-Hinton broth, 37° C., read-out: Minimum inhibitory concentration (MIC mg/L) VRE10.
The mark [6] stands for this setting: Mu50, Mueller-Hinton broth, 37° C.
Where [7] appears, read: BB568, Mueller-Hinton broth, 37° C.
The mark [8] stands for this setting: EMRSA-16, Mueller-Hinton broth, 37° C.
Setting [9] is: VRE1, Mueller-Hinton broth, 37° C., read-out: Minimum inhibitory concentration (MIC mg/L) VRE1.
Where [10] appears, read: EMRSA-15, Mueller-Hinton broth, 37° C.

Take `COC(=O)c1cc2cc(NC(=O)c3nc(NC(=O)CCCOc4cc5c(cc4OC)C(=O)N4CCC[C@H]4C=N5)cn3C)ccc2s1` [Compound 35, (S)-methyl 5-(4-(4-((7-methoxy-5-oxo-2,3,5,11a-tetrahydro-1H-benzo[e]pyrrolo[1,2-a][1,4]diazepin-8-yl)oxy)butanamido)-1-methyl-1H-imidazole-2-carboxamido)benzo[b]thiophene-2-carboxylate]: the MIC (with E. faecium VRE10 (setting [3]); in the test with MRSA strain BB568; with MRSA strain EMRSA-16; in the test with E. faecalis VRE1 (setting [4]); in test [1]; with MRSA strain EMRSA-15) was 0.06 mg/L (≈ 0.0931 µM) in each case.

`COc1cc2c(cc1OCCCC(=O)Nc1ccc(-c3cc(C(=O)Nc4ccc(OCCN5CCOCC5)cc4)n(C)c3)cc1)N=C[C@@H]1CCCN1C2=O` [Compound 51, (S)-4-(4-(4-((7-methoxy-5-oxo-2,3,5,11a-tetrahydro-1H-benzo[e]pyrrolo[1,2-a][1,4]diazepin-8-yl)oxy)butanamido)phenyl)-1-methyl-N-(4-(2-morpholinoethoxyl)phenyl)-1H-pyrrole-2-carboxamide]: the MIC was 1 mg/L (≈ 1.36 µM) in the test on E. faecium VRE10 (setting [5]); 1 mg/L (≈ 1.36 µM) in test [2] (setting [6]); 2 mg/L (≈ 2.72 µM) in the test on MRSA strain BB568 (setting [7]); 2 mg/L (≈ 2.72 µM) in the test with MRSA strain EMRSA-16 (setting [8]); 0.5 mg/L (≈ 0.68 µM) in the test with E. faecalis VRE1 (setting [9]); 2 mg/L (≈ 2.72 µM) in test [1]. For the same compound, the MIC in the test on MRSA strain EMRSA-15 (setting [10]) came out at 2 mg/L (≈ 2.72 µM).

With `COc1cc2c(cc1OCCCC(=O)Nc1ccc(-c3cc(C(=O)NCc4ccc(OCCN5CCOCC5)cc4)n(C)c3)cc1)N=C[C@@H]1CCCN1C2=O` [Compound 52, (S)-4-(4-(4-((7-methoxy-5-oxo-2,3,5,11a-tetrahydro-1H-benzo[e]pyrrolo[1,2-a][1,4]diazepin-8-yl)oxy)butanamido)phenyl)-1-methyl-N-(4-(2-morpholinoethoxyl)benzyl)-1H-pyrrole-2-carboxamide], the MIC is 1 mg/L (≈ 1.34 µM) with E. faecium VRE10 (setting [3]); 2 mg/L (≈ 2.67 µM) in test [2]; 4 mg/L (≈ 5.34 µM) in the test on MRSA strain BB568; 1 to 2 mg/L (≈ 1.34 to 2.67 µM) in the test on MRSA strain EMRSA-16; 2 mg/L (≈ 2.67 µM) in the test on E. faecalis VRE1 (setting [4]); 4 mg/L (≈ 5.34 µM) in test [1]. For the same compound, in the test on MRSA strain EMRSA-15, the MIC came to 4 mg/L (≈ 5.34 µM).

Take `COc1cc2c(cc1OCCCC(=O)Nc1ccc(-c3cc(C(=O)Nc4ccc(N5CCOCC5)cc4)n(C)c3)cc1)N=C[C@@H]1CCCN1C2=O` [Compound 49, (S)-4-(4-(4-((7-methoxy-5-oxo-2,3,5,11a-tetrahydro-1H-benzo[e]pyrrolo[1,2-a][1,4]diazepin-8-yl)oxy)butanamido)phenyl)-1-methyl-N-(4-morpholinophenyl)-1H-pyrrole-2-carboxamide]: the MIC in the test on E. faecium VRE10 (setting [3]) was 0.5 to 1 mg/L (≈ 0.724 to 1.45 µM); in test [2] it was 1 mg/L (≈ 1.45 µM); in the test with MRSA strain BB568, 2 mg/L (≈ 2.9 µM); with MRSA strain EMRSA-16, 2 mg/L (≈ 2.9 µM); in the test on E. faecalis VRE1 (setting [4]) it was 0.5 mg/L (≈ 0.724 µM); in test [1], 2 mg/L (≈ 2.9 µM). The MIC with MRSA strain EMRSA-15 turned out to be 2 mg/L (≈ 2.9 µM).

Take `COc1cc2c(cc1OCCCC(=O)Nc1cc(C(=O)Nc3ccc4sccc4c3)n(C)c1)N=C[C@@H]1CCCN1C2=O` [Compound 27, (S)—N-(benzo[b]thiophen-5-yl)-4-(4-((7-methoxy-5-oxo-2,3,5,11a-tetrahydro-1H-benzo[e]pyrrolo[1,2-a][1,4]diazepin-8-yl)oxy)butanamido)-1-methyl-1H-pyrrole-2-carboxamide]: the MIC in the test with E. faecium VRE10 (setting [5]) is 0.03 mg/L (≈ 0.0512 µM); in test [2] (setting [6]) it was less than 0.03 mg/L; in the test on MRSA strain BB568 (setting [7]), 0.125 mg/L (≈ 0.213 µM); in the test on MRSA strain EMRSA-16 (setting [8]) it was 0.125 mg/L (≈ 0.213 µM); in the test with E. faecalis VRE1 (setting [9]), 0.125 mg/L (≈ 0.213 µM); in test [1], 0.06 to 0.125 mg/L (≈ 0.102 to 0.213 µM). Also, the MIC with MRSA strain EMRSA-15 (setting [10]) amounted to 0.03 mg/L (≈ 0.0512 µM).

With `COC(=O)c1ccc(-c2ccc(NC(=O)CCCOc3cc4c(cc3OC)C(=O)N3CCC[C@H]3C=N4)cc2)s1` [Compound 18, (S)-methyl 5-(4-(4-((7-methoxy-5-oxo-2,3,5,11a-tetrahydro-1H-benzo[e]pyrrolo[1,2-a][1,4]diazepin-8-yl)oxy)butanamido)phenyl)thiophene-2-carboxylate, reference compound], the MIC in the test with E. faecium VRE10 (setting [3]) is 16 mg/L (≈ 29.2 µM); in test [2], more than 32 mg/L; with MRSA strain BB568, more than 32 mg/L; in the test on MRSA strain EMRSA-16, more than 32 mg/L; in the test on E. faecalis VRE1 (setting [4]) it was more than 32 mg/L; in test [1] it was 32 mg/L (≈ 58.4 µM). The MIC in the test on MRSA strain EMRSA-15 was more than 32 mg/L.

`COc1cc2c(cc1OCCCC(=O)Nc1cc(C(=O)Nc3ccc4occc4c3)n(C)c1)N=C[C@@H]1CCCN1C2=O` [Compound 26, (S)—N-(benzofuran-5-yl)-4-(4-((7-methoxy-5-oxo-2,3,5,11a-tetrahydro-1H-benzo[e]pyrrolo[1,2-a][1,4]diazepin-8-yl)oxy)butanamido)-1-methyl-1H-pyrrole-2-carboxamide]: the MIC was 0.06 mg/L (≈ 0.105 µM) with E. faecium VRE10 (setting [5]); 0.06 mg/L (≈ 0.105 µM) in test [2] (setting [6]); 0.125 mg/L (≈ 0.219 µM) in the test with MRSA strain BB568; 0.125 mg/L (≈ 0.219 µM) with MRSA strain EMRSA-16; 0.06 to 0.125 mg/L (≈ 0.105 to 0.219 µM) in the test on E. faecalis VRE1 (setting [4]); 0.125 mg/L (≈ 0.219 µM) in test [1]. In addition, in the test on MRSA strain EMRSA-15 (setting [10]), the MIC was 0.06 mg/L (≈ 0.105 µM).

As for `COc1cc2c(cc1OCCCC(=O)Nc1cc(C(=O)Nc3ccc(N4CCOCC4)nc3)n(C)c1)N=C[C@@H]1CCCN1C2=O` [Compound 31, (S)-4-(4-((7-methoxy-5-oxo-2,3,5,11a-tetrahydro-1H-benzo[e]pyrrolo[1,2-a][1,4]diazepin-8-yl)oxy)butanamido)-1-methyl-N-(6-morpholinopyridin-3-yl)-1H-pyrrole-2-carboxamide], the MIC in the test with E. faecium VRE10 (setting [3]) is 0.5 mg/L (≈ 0.812 µM); in the test on MRSA strain BB568, 4 mg/L (≈ 6.5 µM); in the test with MRSA strain EMRSA-16, 4 mg/L (≈ 6.5 µM); with E. faecalis VRE1 (setting [4]) it was 1 mg/L (≈ 1.62 µM); in test [1], 1 mg/L (≈ 1.62 µM); in the test with MRSA strain EMRSA-15, 0.5 mg/L (≈ 0.812 µM).

For `COC(=O)c1cc(NC(=O)c2cc(NC(=O)c3cc(NC(=O)c4cc(NC(=O)c5cc(-c6ccc(NC(=O)CCCOc7cc8c(cc7OC)C(=O)N7CCC[C@H]7C=N8)cc6)cn5C)cn4C)cn3C)cn2C)cn1C` [Compound 59], the MIC in the test with E. faecium VRE10 (setting [3]) was 4 mg/L (≈ 3.87 µM); in test [2], 4 mg/L (≈ 3.87 µM); with MRSA strain BB568, 16 mg/L (≈ 15.5 µM); with MRSA strain EMRSA-16, 16 mg/L (≈ 15.5 µM); in the test with E. faecalis VRE1 (setting [4]) it was 32 mg/L (≈ 31 µM); in test [1] it was 16 to 32 mg/L (≈ 15.5 to 31 µM). For the same compound, the MIC with MRSA strain EMRSA-15 worked out at 2 mg/L (≈ 1.94 µM).

As to `COC(=O)c1cc2cc(NC(=O)c3cc(NC(=O)CCCOc4cc5c(cc4OC)C(=O)N4CCC[C@H]4C=N5)cn3C)ccc2s1` [Compound 28, (S)-methyl 5-(4-(4-((7-methoxy-5-oxo-2,3,5,11a-tetrahydro-1H-benzo[e]pyrrolo[1,2-a][1,4]diazepin-8-yl)oxy)butanamido)-1-methyl-1H-pyrrole-2-carboxamido)benzo[b]thiophene-2-carboxylate], the MIC in the test with E. faecium VRE10 (setting [3]) is 0.06 mg/L (≈ 0.0932 µM); in the test on MRSA strain BB568 it was 0.125 mg/L (≈ 0.194 µM); in the test with MRSA strain EMRSA-16, 0.125 mg/L (≈ 0.194 µM); in the test with E. faecalis VRE1 (setting [4]), 0.06 mg/L (≈ 0.0932 µM); in test [1] it was 0.06 mg/L (≈ 0.0932 µM); in the test on MRSA strain EMRSA-15, 0.06 mg/L (≈ 0.0932 µM).

Turning to `COc1cc2c(cc1OCCCC(=O)Nc1cn(C)c(C(=O)Nc3ccc(N4CCOCC4)nc3)n1)N=C[C@@H]1CCCN1C2=O` [Compound 40, (S)-4-(4-((7-methoxy-5-oxo-2,3,5,11a-tetrahydro-1H-benzo[e]pyrrolo[1,2-a][1,4]diazepin-8-yl)oxy)butanamido)-1-methyl-N-(6-morpholinopyridin-3-yl)-1H-imidazole-2-carboxamide], the MIC with E. faecium VRE10 (setting [3]) came to 0.125 mg/L (≈ 0.203 µM); in the test on MRSA strain BB568, 0.5 mg/L (≈ 0.811 µM); in the test on MRSA strain EMRSA-16, 0.5 mg/L (≈ 0.811 µM); with E. faecalis VRE1 (setting [4]), 0.25 mg/L (≈ 0.405 µM); in test [1] it was 0.125 mg/L (≈ 0.203 µM); with MRSA strain EMRSA-15, 0.125 mg/L (≈ 0.203 µM).

Regarding `COc1cc2c(cc1OCCCC(=O)Nc1cn(C)c(C(=O)Nc3ccc(N4CCOCC4)cc3)n1)N=C[C@@H]1CCCN1C2=O` [Compound 37, (S)-4-(4-((7-methoxy-5-oxo-2,3,5,11a-tetrahydro-1H-benzo[e]pyrrolo[1,2-a][1,4]diazepin-8-yl)oxy)butanamido)-1-methyl-N-(4-morpholinophenyl)-1H-imidazole-2-carboxamide], the MIC came to 0.125 mg/L (≈ 0.203 µM) in the test on E. faecium VRE10 (setting [3]); 0.5 mg/L (≈ 0.812 µM) in the test on MRSA strain BB568; 0.5 mg/L (≈ 0.812 µM) in the test on MRSA strain EMRSA-16; 0.25 mg/L (≈ 0.406 µM) in the test with E. faecalis VRE1 (setting [4]); 0.125 mg/L (≈ 0.203 µM) in test [1]; 0.125 mg/L (≈ 0.203 µM) in the test with MRSA strain EMRSA-15.

`COc1cc2c(cc1OCCCC(=O)Nc1cc(C(=O)Nc3ccc(N4CCOCC4)cc3)n(C)c1)N=C[C@@H]1CCCN1C2=O` [Compound 30, (S)-4-(4-((7-methoxy-5-oxo-2,3,5,11a-tetrahydro-1H-benzo[e]pyrrolo[1,2-a][1,4]diazepin-8-yl)oxy)butanamido)-1-methyl-N-(4-morpholinophenyl)-1H-pyrrole-2-carboxamide]: the MIC in the test with E. faecium VRE10 (setting [5]) came to 0.5 mg/L (≈ 0.813 µM); in the test on MRSA strain BB568 (setting [7]) it was 2 mg/L (≈ 3.25 µM); with MRSA strain EMRSA-16 (setting [8]), 2 mg/L (≈ 3.25 µM); in the test with E. faecalis VRE1 (setting [9]) it was 1 mg/L (≈ 1.63 µM); in test [1] it was 0.5 mg/L (≈ 0.813 µM); with MRSA strain EMRSA-15 (setting [10]), 0.5 mg/L (≈ 0.813 µM).
